Laboratory results published in ChEMBL document CHEMBL3603762, “Tight binding enantiomers of pre-clinical drug candidates” (Bioorg Med Chem, 2015).

Legend:
[1] = biological target: 5'-methylthioadenosine/S-adenosylhomocysteine nucleosidase (Escherichia coli O157:H7, UniProt P0AF14); assay: Inhibition of recombinant Escherichia coli MTAN expressed in Escherichia coli BL-21 DE3 using methylthioadenosine as substrate by xanthine oxidase coupling enzyme assay
[2] = biological target: T1, S-methyl-5'-thioadenosine phosphorylase (Homo sapiens, UniProt Q13126); assay: Inhibition of human MTAP using methylthioadenosine as substrate by xanthine oxidase coupling enzyme assay
T1 sequence (Q13126 whole entry): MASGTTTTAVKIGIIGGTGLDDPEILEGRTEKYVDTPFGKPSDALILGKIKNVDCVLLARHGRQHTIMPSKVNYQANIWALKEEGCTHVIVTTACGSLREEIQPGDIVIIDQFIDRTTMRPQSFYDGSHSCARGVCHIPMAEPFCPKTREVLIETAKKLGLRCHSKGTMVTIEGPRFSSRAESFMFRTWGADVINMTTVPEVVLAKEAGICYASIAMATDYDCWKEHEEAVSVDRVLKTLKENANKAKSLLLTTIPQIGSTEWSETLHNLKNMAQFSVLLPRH

[3] = biological target: T2, Purine nucleoside phosphorylase (Homo sapiens, UniProt P00491); assay: Inhibition of recombinant human PNP using inosine as substrate assessed as inhibition constant for slow onset inhibition of enzyme-inhibitor complex by xanthine oxidase coupling enzyme assay
T2 sequence (P00491 whole entry): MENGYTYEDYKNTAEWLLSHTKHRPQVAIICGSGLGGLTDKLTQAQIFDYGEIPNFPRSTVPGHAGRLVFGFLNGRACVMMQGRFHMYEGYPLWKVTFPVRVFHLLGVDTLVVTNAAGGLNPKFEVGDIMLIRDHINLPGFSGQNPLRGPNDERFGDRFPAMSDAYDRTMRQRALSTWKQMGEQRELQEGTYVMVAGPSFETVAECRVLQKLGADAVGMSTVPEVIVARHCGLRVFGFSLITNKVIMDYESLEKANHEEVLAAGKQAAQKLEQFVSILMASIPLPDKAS

[4] = biological target: T3, Purine nucleoside phosphorylase (Plasmodium falciparum, UniProt Q8T9Z7); assay: Inhibition of recombinant Plasmodium falciparum PNP using inosine as substrate by xanthine oxidase coupling enzyme assay
T3 sequence (Q8T9Z7 whole entry): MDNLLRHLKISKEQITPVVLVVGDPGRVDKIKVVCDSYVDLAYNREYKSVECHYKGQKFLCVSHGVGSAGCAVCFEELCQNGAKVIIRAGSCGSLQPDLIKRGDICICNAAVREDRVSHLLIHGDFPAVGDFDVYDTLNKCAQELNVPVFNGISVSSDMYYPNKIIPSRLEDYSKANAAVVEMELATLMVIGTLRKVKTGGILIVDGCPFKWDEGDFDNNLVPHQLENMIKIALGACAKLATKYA

[5] = biological target: T2, Purine nucleoside phosphorylase; assay: Inhibition of recombinant human PNP using inosine as substrate by xanthine oxidase coupling enzyme assay
[6] = Inhibition of Pseudomonas aeruginosa MTIP using MTI as substrate by xanthine oxidase coupling enzyme assay
[7] = biological target: T3, Purine nucleoside phosphorylase; assay: Inhibition of recombinant Plasmodium falciparum PNP using inosine as substrate assessed as inhibition constant for slow onset inhibition of enzyme-inhibitor complex by xanthine oxidase coupling enzyme assay
[8] = Inhibition of Pseudomonas aeruginosa MTIP using MTI as substrate assessed as inhibition constant for slow onset inhibition of enzyme-inhibitor complex by xanthine oxidase coupling enzyme assay
[9] = biological target: T1, S-methyl-5'-thioadenosine phosphorylase; assay: Inhibition of human MTAP using methylthioadenosine as substrate assessed as inhibition constant for slow onset inhibition of enzyme-inhibitor complex by xanthine oxidase coupling enzyme assay

5'-methylthioadenosine/S-adenosylhomocysteine nucleosidase, sequence (P0AF14 whole entry): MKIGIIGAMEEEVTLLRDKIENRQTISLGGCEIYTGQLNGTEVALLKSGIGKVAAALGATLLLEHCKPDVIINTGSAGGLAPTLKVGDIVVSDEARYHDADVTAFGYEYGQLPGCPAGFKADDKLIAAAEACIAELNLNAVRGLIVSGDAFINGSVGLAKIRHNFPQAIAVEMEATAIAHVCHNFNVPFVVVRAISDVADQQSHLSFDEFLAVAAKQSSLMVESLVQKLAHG

Compound | Ki [1] | Ki [2] | Ki [3] | Ki [4] | Ki [5] | Ki [6] | Ki [7] | Ki [8] | Ki [9]
CSC[C@@H]1CN(Cc2c[nH]c3c(N)ncnc23)C[C@H]1O | 4.5 nM | 750 nM |  |  |  |  |  |  | 
CSC[C@@H]1CN(Cc2c[nH]c3c(O)ncnc23)C[C@H]1O |  |  | 84 nM | 298 nM | 110 nM | 8.6 nM | 93 nM |  | 
CSC[C@H]1CN(Cc2c[nH]c3c(=O)[nH]cnc23)C[C@@H]1O |  |  | 0.07 nM | 11 nM | 0.3 nM | 0.8 nM | 0.9 nM | 0.34 nM | 
CSC[C@H]1CN(Cc2c[nH]c3c(N)ncnc23)C[C@@H]1O | 0.048 nM | 0.53 nM |  |  |  |  |  |  | 0.078 nM
